This is an account of results in DBAASP.

≈ marks a conversion by molar mass, not a printed value.

Among the test systems are Bacillus cereus C737; Escherichia coli UB1005; Acinetobacter baumannii; Campylobacter jejuni; Escherichia coli; Escherichia coli K-12; Staphylococcus aureus; Klebsiella pneumoniae.
What all share (assay): ≥ marks a high value that may be exact or a test limit, other limits are often not marked, values filed in µg/mL are converted to µM
For experiment [1], the system named is Escherichia coli ATCC 35218.
In experiment [2] the test system is Escherichia coli ATCC 11775.
Experiment [3] relates to Salmonella enterica subsp. enterica serovar Typhi Vi+.
Experiment [4] deals with Escherichia coli ATCC 25922.
Experiment [5] concerns Salmonella enterica subsp. enterica serovar Typhimurium ATCC 14028.
Experiment [6] deals with Pseudomonas aeruginosa PAO1.
Experiment [7] relates to Staphylococcus aureus USA 300.
In experiment [8] the test system is Staphylococcus aureus CGMCC 1.8721.
Experiment [9] deals with Pseudomonas aeruginosa CGMCC 1.2421.
In experiment [10] the test system is Escherichia coli CGMCC 1.8732.
Experiment [11] deals with Klebsiella pneumoniae CGMCC 1.1736.
For experiment [12], the system named is Staphylococcus epidermidis CGMCC 1.4260.
In experiment [13] the test system is Bacillus subtilis CGMCC 1.3376.
The test system of experiment [14] is Klebsiella pneumoniae Q14-0095.
Experiment [15] deals with Pseudomonas aeruginosa Q14-0890.
Experiment [16] has as its system Listeria monocytogenes NCTC 11994.
In experiment [17] the test system is Acinetobacter baumannii Q12-0809.
Experiment [18] relates to Acinetobacter baumannii Q12-0867.
The subject of experiment [19] is Staphylococcus aureus RN4220.
Experiment [20] has as its system Pseudomonas aeruginosa ATCC 27853.
Experiment [21] deals with Staphylococcus aureus NCTC 12493.
The subject of experiment [22] is Staphylococcus aureus Q14-0320.
For experiment [23], the system named is Pseudomonas aeruginosa Q14-0208.
For experiment [24], the system named is Pseudomonas aeruginosa Q12-0581.
The test system of experiment [25] is Enterococcus faecalis JH-2-2.
In experiment [26] the test system is Klebsiella pneumoniae Q14-0285.
Experiment [27] relates to Klebsiella pneumoniae ATCC 700603.
Experiment [28] deals with Staphylococcus aureus MRSA-15.
Experiment [29] relates to Salmonella typhimurium SL1344.
Experiment [30] has as its system Acinetobacter baumannii Q13-0717.
In experiment [31] the test system is Klebsiella pneumoniae NCTC 13442.
For experiment [32], the system named is Staphylococcus aureus ATCC 29213.
In experiment [33] the test system is Campylobacter jejuni NCTC 11351.
The test system of experiment [34] is Pseudomonas aeruginosa PA-W1.
For experiment [35], the system named is Pseudomonas aeruginosa PA-W14.
In experiment [36] the test system is Staphylococcus aureus NCTC 8325-4.

In the case of `CC[C@H](C)[C@H](NC(=O)[C@@H]1CCCN1C(=O)[C@H](CCCN=C(N)N)NC(=O)[C@@H]1CCCN1C(=O)[C@H](Cc1cnc[nH]1)NC(=O)[C@H](CO)NC(=O)[C@H](CO)NC(=O)[C@@H]1CCCN1C(=O)[C@H](CCCN=C(N)N)NC(=O)[C@@H]1CCCN1C(=O)[C@H](CO)NC(=O)[C@H](Cc1ccc(O)cc1)NC(=O)[C@@H]1CCCN1C(=O)[C@H](CCCN=C(N)N)NC(=O)[C@@H]1CCCN1C(=O)[C@H](CCCCN)NC(=O)CN)C(=O)N[C@@H](CCCN=C(N)N)C(=O)N[C@H](C(=O)O)C(C)C` [GKPRPYSPRPSSHPRPIRV], the MIC stood at 0.2 µM (≈ 0.437 µg/mL) in [1]; 0.6 µM (≈ 1.31 µg/mL) in experiment [2]; 3 µM (≈ 6.55 µg/mL) in experiment [3]; 0.4 µM (≈ 0.874 µg/mL) in experiment [4]; 2 µM (≈ 4.37 µg/mL) in experiment [5].

For `CC[C@H](C)[C@H](NC(=O)[C@H](CC(=O)O)NC(=O)[C@H](Cc1ccccc1)NC(=O)[C@H](CC(C)C)NC(=O)CN)C(=O)N[C@H](C(=O)N[C@@H](CCCCN)C(=O)N[C@@H](CCCCN)C(=O)N[C@H](C(=O)N[C@H](C(=O)NCC(=O)N[C@@H](C)C(=O)N[C@@H](CC(C)C)C(N)=O)C(C)C)C(C)C)C(C)C` [GLFDIVKKVVGAL], the MIC against Bacillus cereus C737 was ≥ 47.1 µM; in [6], > 94.2 µM; in experiment [7] it was 11.8 µM (≈ 16 µg/mL); in the experiment on Escherichia coli UB1005, 23.6 µM (≈ 32 µg/mL).

Consider `CC[C@H](C)[C@H](NC(=O)[C@H](CO)NC(=O)CNC(=O)[C@@H](NC(=O)[C@@H](N)CCCN=C(N)N)[C@@H](C)CC)C(=O)N[C@@H](CC(C)C)C(=O)NCC(=O)N[C@@H](CCCN=C(N)N)C(=O)N[C@@H](CC(C)C)C(=O)N[C@@H](C)C(=O)N[C@@H](CCCCN)C(=O)NCC(=O)N[C@@H](CC(C)C)C(=O)N1CCC[C@H]1C(=O)N[C@H](C(=O)N[C@@H](CC(C)C)C(=O)N[C@@H](CCCCN)C(=O)N[C@@H](CO)C(=O)N[C@@H](Cc1c[nH]c2ccccc12)C(=O)N[C@H](C(=O)N[C@@H](CCCCN)C(=O)N[C@@H](CC(N)=O)C(=O)N[C@@H](CCCN=C(N)N)C(N)=O)[C@@H](C)CC)[C@@H](C)O` [RIGSILGRLAKGLPTLKSWIKNR], for which the MIC in experiment [8] was ≥ 100 µM; in experiment [9], 12.5 µM (≈ 32.2 µg/mL); against Acinetobacter baumannii it was 12.5 µM (≈ 32.2 µg/mL); in experiment [10], 12.5 µM (≈ 32.2 µg/mL); in [11], 12.5 µM (≈ 32.2 µg/mL); in [12], 6.25 µM (≈ 16.1 µg/mL). In [13], this compound gave an MIC of 12.5 µM (≈ 32.2 µg/mL).

Regarding `CC(C)C[C@H](NC(=O)[C@H](Cc1cnc[nH]1)NC(=O)[C@H](Cc1ccccc1)NC(=O)[C@H](Cc1ccccc1)NC(=O)[C@H](CCCN=C(N)N)NC(=O)[C@H](CCCCN)NC(=O)[C@H](CO)NC(=O)[C@H](CCCN=C(N)N)NC(=O)[C@H](Cc1cnc[nH]1)NC(=O)[C@H](CC(C)C)NC(=O)[C@H](Cc1ccccc1)NC(=O)[C@H](CCCCN)NC(=O)[C@H](CCCN=C(N)N)NC(=O)[C@H](Cc1ccc(O)cc1)NC(=O)CNC(=O)[C@@H](NC(=O)[C@H](Cc1cnc[nH]1)NC(=O)[C@H](CC(C)C)NC(=O)[C@@H](N)C(C)C)[C@@H](C)O)C(=O)N[C@@H](CCCN=C(N)N)C(=O)O` [VLHTGYRKFLHRSKRFFHLR], the MIC in experiment [14] was ≥ 49.2 µM; in experiment [15], 24.6 µM (≈ 64 µg/mL); in experiment [16] it was 24.6 µM (≈ 64 µg/mL); in experiment [6], 197 µM (≈ 512 µg/mL); in experiment [17] it was 12.3 µM (≈ 32 µg/mL); in experiment [18], 24.6 µM (≈ 64 µg/mL). The MIC in experiment [19] is ≥ 49.2 µM; in experiment [20], > 49.2 µM; in experiment [21], 12.3 µM (≈ 32 µg/mL); in experiment [22], ≥ 49.2 µM; against Campylobacter jejuni, ≥ 49.2 µM; in [23], ≥ 49.2 µM. In addition, the minimal inhibitory concentration (MIC) in [24] is ≥ 49.2 µM; in experiment [25] it was 24.6 µM (≈ 64 µg/mL); in experiment [26], 24.6 µM (≈ 64 µg/mL); in [27], 49.2 µM (≈ 128 µg/mL); in [28], ≥ 49.2 µM; in experiment [29], 12.3 µM (≈ 32 µg/mL). Also, the minimal inhibitory concentration (MIC) is > 49.2 µM against Escherichia coli; ≥ 49.2 µM in experiment [30]; ≥ 49.2 µM in experiment [31]; > 49.2 µM in experiment [32]; 24.6 µM (≈ 64 µg/mL) in the experiment with Escherichia coli K-12; ≥ 49.2 µM in experiment [33].

Consider `NCCCC[C@H](NC(=O)[C@H](Cc1c[nH]c2ccccc12)NC(=O)[C@H](Cc1c[nH]c2ccccc12)NC(=O)[C@H](CCCCN)NC(=O)[C@H](CCCCN)NC(=O)[C@H](Cc1c[nH]c2ccccc12)NC(=O)[C@H](Cc1c[nH]c2ccccc12)NC(=O)[C@H](CCCCN)NC(=O)[C@H](CCCCN)NC(=O)[C@@H](N)Cc1c[nH]c2ccccc12)C(N)=O` [WKKWWKKWWK], for which the MIC in [6] was 15.6 µM (≈ 24.8 µg/mL); in the experiment on Staphylococcus aureus, 15.6 µM (≈ 24.8 µg/mL); in the experiment on Klebsiella pneumoniae, 62.5 µM (≈ 99.3 µg/mL); in experiment [34], 31.3 µM (≈ 49.7 µg/mL); in experiment [35] it was ≥ 125 µM; in experiment [36], 15.6 µM (≈ 24.8 µg/mL). In the experiment with Escherichia coli K-12, this compound gave a minimum inhibitory concentration (MIC) of 15.6 µM (≈ 24.8 µg/mL).
